The test system of the data set is proteases in pooled pig plasma. The data set can be described thus: Multiplex substrate profiling by mass spectrometry (MSP-MS) of pig plasma with the 228-member tetradecapeptide library. To be noted: pooled pig plasma ~50-fold diluted to 1 mg/mL protein, DPBS 1 mM DTT, room temperature, 15 and 60 min, LC-MS/MS, triplicate.

“Also recorded” adds a separate entry of the source.

From the text: To quantify proteolytic activity in plasma samples obtained from healthy pigs, we used the MSP-MS assay, which is a global and unbiased substrate-based protease profiling approach. This assay uses a physicochemically diverse library of peptides as substrates for proteases present in a biological sample. Tandem mass spectrometry is used to quantify protease-derived peptide cleavage products. These substrates were designed to contain a unique dipeptide at each terminus (position 1–2 and 13–14) to profile exo-acting proteases and a central decapeptide sequence (position 3–12) consisting of all combinations of neighbor and near-neighbor amino acid pairs that are used to profile endoproteases [10].
Equal volumes of plasma from six pigs were mixed and then diluted to a final concentration of 1 mg/mL protein in assay buffer and mixed with the synthetic peptides. This dilution of ~50-fold reduced the concentration of plasma proteins and peptides in the assay that could interfere with the quantification of the synthetic peptides. Cleavage of synthetic peptides by proteases in neat plasma was predicted to occur in minutes and therefore dilution of plasma decreases the concentration of all proteases so that activity could be monitored at two time intervals over the course of an hour-long assay. This allowed us to detect and quantify peptide cleavage products after 15 and 60 min incubations. […]

In the case of FRIHGFDEAHNAWM, the “cleavage site of the library peptide by pig plasma proteases” value is on record as “cleaved between His-Asn; also recorded: cleaved between Ala-Trp”.

(Values after paper PMC7571063, “High-Resolution Mass Spectrometry-Based Approaches for the Detection and Quantification of Peptidase Activity in Plasma” (Molecules, 2020).)
